{"source": "patent US20250177296A1", "about": "“SLURRY AND SOLUTION COMPOSITIONS” (MIRAKI INNOVATION THINK TANK LLC, priority 2018, published 2025)", "origin": "cited, not measured here", "conditions": "pretreatment with 2% lidocaine", "data": [{"smiles": "CCN(CC)CC(=O)Nc1c(C)cccc1C", "note": "[lidocaine]", "values": [{"measurement": "Effect of pretreatment on pain response associated with hypertonic saline", "result": "attenuates pain response"}]}]}
